According to patent publication US20230330094A1, “COMBINATION COMPOSITIONS AND METHODS FOR TREATING CANCER” (The Board of Supervisors of Louisiana State University and …, priority 2020, published 2023):
“Also recorded” adds a separate entry of the source.

Columns and labels:
[1] = system: luciferase-modified U87MG tumor cells; assay: In vivo bioluminescent imaging of intracranial tumor growth, orthotopic GBM mouse model; details: imaging days 13, 20 and 30; vs saline/vehicle
[2] = system: luciferase-modified U87MG tumor cells; assay: Ex vivo T1-weighted MRI tumor volume, orthotopic GBM mouse model; format: in vivo; details: day 30, ex vivo MRI; vs saline
Method: Athymic nude female mice (Charles Rivers Laboratories and Envigo), 6 to 8 weeks of age, were anesthetized with a ketamine/xylazine cocktail solution (100 mg/kg; 10 mg/kg). Then, mice were secured in a stereotactic head frame and a midline 1 cm incision over the scalp was made. Natural tears lubricant was applied to the eyes. For each mouse, 5 × 10^6 U87MG cells in 5 µL serum free Dulbecco’s Modified Eagle Medium (DMEM) tagged with a luciferase […] gene were implanted into the right hippocampus using a 10 µL Hamilton syringe at the following coordinates, in reference to the bregma: 1.5 mm lateral, 1.5 mm posterior and 3.5 mm in depth; the needle was lowered to 3.5 mm and pulled up by 1 mm, prior to the injection (Marrero et al., 2014) (FIG. 1B). Rectal and cranial temperatures will be maintained at 36-37° C. during surgical procedure. […]
Treatment was administered starting on day 13 after implantation, and intracranial tumor growth was quantified using in vivo bioluminescent imaging on days 13 (before treatment) and then 20 and 30. […]
Cheshire image processing software (Hayden Image/Processing Group, Waltham, MA), was used to manually outline whole brain and tumor volumes enhanced by Gd deposition. […] Whole brain and tumor volumes (mm^3) were extracted and analyzed (Jeffes et al., 2005; Blasiak et al., 2013). […]

[3] = Physiological variables (body weight, temperature, survival) in GBM mouse model; format: in vivo
Method: Athymic nude female mice (Charles Rivers Laboratories and Envigo), 6 to 8 weeks of age, were anesthetized with a ketamine/xylazine cocktail solution (100 mg/kg; 10 mg/kg). Then, mice were secured in a stereotactic head frame and a midline 1 cm incision over the scalp was made. Natural tears lubricant was applied to the eyes. […] Rectal and cranial temperatures will be maintained at 36-37° C. during surgical procedure. The incision was closed using black monofilament nylon 5.0 sterile sutures and the area was cleaned with betadine solution. The mice were placed in individual cages and observed daily for weight, temperature, and locomotor changes. Mice were perfused at the end of the 30-day survival, brains removed and ex vivo MRI imaging were conducted.
Mice were anesthetized with a ketamine/xylazine cocktail solution (100 mg/kg; 10 mg/kg) and secured in a stereotactic head frame. A midline, 1 cm incision was made over the scalp. Natural tear lubricant was applied to the eyes. For each mouse, 5 × 10^6 U87MG cells in 5 µL serum-free Dulbecco’s Modified Eagle Medium (DMEM) were injected into the right hippocampus using a 10 µL Hamilton syringe at the following coordinates related to the bregma: 1.5 mm lateral, 1.5 mm posterior, and 3.5 mm in depth. […]

[4] = system: recurrent GBM; details: single agent or in combination with chemotherapy; cited from earlier work
[5] = biological target: T1, P2×2 (Homo sapiens, UniProt Q9UBL9); details: cited from earlier work
T1 sequence (Q9UBL9 1-471): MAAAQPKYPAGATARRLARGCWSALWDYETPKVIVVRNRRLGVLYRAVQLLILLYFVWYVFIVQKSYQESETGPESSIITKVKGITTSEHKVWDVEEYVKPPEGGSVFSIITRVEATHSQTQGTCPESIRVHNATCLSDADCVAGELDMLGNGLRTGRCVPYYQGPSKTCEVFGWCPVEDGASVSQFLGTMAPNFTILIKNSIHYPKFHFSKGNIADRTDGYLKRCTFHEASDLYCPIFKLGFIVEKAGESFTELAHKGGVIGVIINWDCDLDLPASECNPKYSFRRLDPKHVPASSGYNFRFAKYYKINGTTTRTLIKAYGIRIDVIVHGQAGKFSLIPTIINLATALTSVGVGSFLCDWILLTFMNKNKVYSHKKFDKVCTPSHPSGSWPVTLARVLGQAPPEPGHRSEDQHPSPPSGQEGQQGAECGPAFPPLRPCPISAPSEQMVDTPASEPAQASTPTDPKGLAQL

[6] = system: P2Xs; details: cited from earlier work
[7] = biological target: P2Y 2 (Homo sapiens, UniProt P41231); details: cited from earlier work
[8] = biological target: P2Y4 (Homo sapiens, UniProt P51582); details: cited from earlier work
Sequence of P2Y4 (P51582 whole entry, species assumed): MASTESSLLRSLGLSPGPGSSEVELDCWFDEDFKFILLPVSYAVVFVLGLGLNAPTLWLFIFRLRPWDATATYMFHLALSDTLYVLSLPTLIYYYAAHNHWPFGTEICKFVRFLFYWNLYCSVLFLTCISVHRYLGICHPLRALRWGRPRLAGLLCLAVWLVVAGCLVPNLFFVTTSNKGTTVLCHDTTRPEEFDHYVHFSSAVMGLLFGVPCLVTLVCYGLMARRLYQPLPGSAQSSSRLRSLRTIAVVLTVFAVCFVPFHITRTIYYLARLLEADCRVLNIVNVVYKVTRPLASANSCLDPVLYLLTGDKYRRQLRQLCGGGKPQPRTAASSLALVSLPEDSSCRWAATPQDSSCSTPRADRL

Sequence of P2Y 2 (P41231 whole entry, species assumed): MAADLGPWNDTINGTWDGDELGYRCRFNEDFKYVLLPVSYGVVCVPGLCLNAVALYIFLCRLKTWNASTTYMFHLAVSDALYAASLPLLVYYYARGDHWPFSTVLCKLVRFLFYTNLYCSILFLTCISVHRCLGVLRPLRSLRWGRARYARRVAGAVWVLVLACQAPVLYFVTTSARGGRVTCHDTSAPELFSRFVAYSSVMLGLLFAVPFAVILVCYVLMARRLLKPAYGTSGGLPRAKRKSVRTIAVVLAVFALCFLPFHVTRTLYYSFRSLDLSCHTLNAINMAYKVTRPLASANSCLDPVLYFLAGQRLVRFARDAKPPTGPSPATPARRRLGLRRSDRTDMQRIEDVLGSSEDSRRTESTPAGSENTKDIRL

| Molecule | Bioluminescent tumor growth/size vs vehicle (in words) [1] | MRI (T1WI) tumor volume reduction compared to vehicle [2] | MRI (T1WI) tumor volume vs vehicle (in words) [2] | Survival ([3]; 30-day survival period) | Change in rectal temperature compared to vehicle ([3]; during the 30 days of survival) | Radiographic response rate [4] | pEC50 (P2×2) [5] | pEC50 (P2Xs) [6] | pEC50 (P2Y 2) [7] | pEC50 (P2Y4) [8] |
| --- | --- | --- | --- | --- | --- | --- | --- | --- | --- | --- |
| Avastin: recombinant humanized anti-VEGF monoclonal antibody | reduced tumor size; also recorded: repress orthotopic GBM; also recorded: significantly reduced tumorigenesis; also recorded: significant reduction in growth and size | 67% | reduced GBM tumor volumes | improved survival | No significant changes | up to 40% |  |  |  |  |
| Cc1ccc(C(=O)Nc2ccc(S(=O)(=O)O)c3cc(S(=O)(=O)O)cc(S(=O)(=O)O)c23)cc1NC(=O)c1cccc(NC(=O)Nc2cccc(C(=O)Nc3cc(C(=O)Nc4ccc(S(=O)(=O)O)c5cc(S(=O)(=O)O)cc(S(=O)(=O)O)c45)ccc3C)c2)c1 [Suramin] |  |  |  |  |  |  | 4.5 | 5.4 | 4.3 | 4.0 |
